US12258355B2, “Probes for imaging huntingtin protein” (CHDI Foundation, Inc., priority 2014, dated 2025)

Molecular target: T1, Q46 protein aggregates (Homo sapiens, UniProt P42858)
T1 construct: fused on or other part: GST at the N-terminus, cut off with thrombin before the test to start aggregation; The wells held aggregated Q46 without GST
Experiment: Q46 radioligand binding assay (RBA)
Settings: 10 nM ligand [3H3]MK-3328
Method: Q46 Radioligand Binding Assay
For radioligand binding assays (RBA) GST-Q46 protein was generated based on a previous publication (Scherzinger et al. Cell, Vol. 90, 549-558, Aug. 8, 1997). For experiments 33 μM GST-Q46 was incubated with 150 μg/mL thrombin in assay buffer (150 mM NaCl, 50 mM Tris pH 8.0) and 2 mM CaCl2 for 16 hours at 37° C. Aggregated Q46 was pelleted by centrifugation for 5 minutes at 13,000 rpm in a bench top centrifuge and re-dissolved in the same volume of assay buffer. Test compounds were prepared by titration in DMSO at 11 concentrations from 33 μM to 1 nM. For the RBA, Q46 protein aggregates and test compounds were pre-incubated in assay buffer for 20 minutes at room temperature, in 140 μL/well in a 96-well plate (pp, round bottom). Then, ligand was added in 10 μL/well and incubated for 60 minutes at 37° C. Final assay concentrations were 1 μM to 30 pM test compound, 5 μM Q46 protein (equivalent monomer concentration) and 10 nM ligand [^3H3]MK-3328 (Harrision et al., ACS Med. Chem. Lett., 2 (2011), pp 498-502). Samples were transferred onto GF/B filter plates and washed 2× with 200 μL PBS using a Filtermate Harvester. After drying filter plates for 1 hour at 37° C., the back of the plates were sealed with foil and 30 μL/well scintillation fluid (Packard MicroScint 40) added, incubated for 15 minutes in the dark and counted in a TopCount reader. For analysis, replicate data from independent assay plates were normalized towards 0% and 100% inhibition using control wells of vehicle (0% inhibition) and 3 μM unlabelled MK-3328 (100% inhibition). IC50 values were determined with a sigmoidal inhibition model with four variables (top, bottom, slope, IC50) in a global fit using the normalized replicate data.

T1 sequence (P42858 with tags, fused parts or gaps with the stated changes, form open): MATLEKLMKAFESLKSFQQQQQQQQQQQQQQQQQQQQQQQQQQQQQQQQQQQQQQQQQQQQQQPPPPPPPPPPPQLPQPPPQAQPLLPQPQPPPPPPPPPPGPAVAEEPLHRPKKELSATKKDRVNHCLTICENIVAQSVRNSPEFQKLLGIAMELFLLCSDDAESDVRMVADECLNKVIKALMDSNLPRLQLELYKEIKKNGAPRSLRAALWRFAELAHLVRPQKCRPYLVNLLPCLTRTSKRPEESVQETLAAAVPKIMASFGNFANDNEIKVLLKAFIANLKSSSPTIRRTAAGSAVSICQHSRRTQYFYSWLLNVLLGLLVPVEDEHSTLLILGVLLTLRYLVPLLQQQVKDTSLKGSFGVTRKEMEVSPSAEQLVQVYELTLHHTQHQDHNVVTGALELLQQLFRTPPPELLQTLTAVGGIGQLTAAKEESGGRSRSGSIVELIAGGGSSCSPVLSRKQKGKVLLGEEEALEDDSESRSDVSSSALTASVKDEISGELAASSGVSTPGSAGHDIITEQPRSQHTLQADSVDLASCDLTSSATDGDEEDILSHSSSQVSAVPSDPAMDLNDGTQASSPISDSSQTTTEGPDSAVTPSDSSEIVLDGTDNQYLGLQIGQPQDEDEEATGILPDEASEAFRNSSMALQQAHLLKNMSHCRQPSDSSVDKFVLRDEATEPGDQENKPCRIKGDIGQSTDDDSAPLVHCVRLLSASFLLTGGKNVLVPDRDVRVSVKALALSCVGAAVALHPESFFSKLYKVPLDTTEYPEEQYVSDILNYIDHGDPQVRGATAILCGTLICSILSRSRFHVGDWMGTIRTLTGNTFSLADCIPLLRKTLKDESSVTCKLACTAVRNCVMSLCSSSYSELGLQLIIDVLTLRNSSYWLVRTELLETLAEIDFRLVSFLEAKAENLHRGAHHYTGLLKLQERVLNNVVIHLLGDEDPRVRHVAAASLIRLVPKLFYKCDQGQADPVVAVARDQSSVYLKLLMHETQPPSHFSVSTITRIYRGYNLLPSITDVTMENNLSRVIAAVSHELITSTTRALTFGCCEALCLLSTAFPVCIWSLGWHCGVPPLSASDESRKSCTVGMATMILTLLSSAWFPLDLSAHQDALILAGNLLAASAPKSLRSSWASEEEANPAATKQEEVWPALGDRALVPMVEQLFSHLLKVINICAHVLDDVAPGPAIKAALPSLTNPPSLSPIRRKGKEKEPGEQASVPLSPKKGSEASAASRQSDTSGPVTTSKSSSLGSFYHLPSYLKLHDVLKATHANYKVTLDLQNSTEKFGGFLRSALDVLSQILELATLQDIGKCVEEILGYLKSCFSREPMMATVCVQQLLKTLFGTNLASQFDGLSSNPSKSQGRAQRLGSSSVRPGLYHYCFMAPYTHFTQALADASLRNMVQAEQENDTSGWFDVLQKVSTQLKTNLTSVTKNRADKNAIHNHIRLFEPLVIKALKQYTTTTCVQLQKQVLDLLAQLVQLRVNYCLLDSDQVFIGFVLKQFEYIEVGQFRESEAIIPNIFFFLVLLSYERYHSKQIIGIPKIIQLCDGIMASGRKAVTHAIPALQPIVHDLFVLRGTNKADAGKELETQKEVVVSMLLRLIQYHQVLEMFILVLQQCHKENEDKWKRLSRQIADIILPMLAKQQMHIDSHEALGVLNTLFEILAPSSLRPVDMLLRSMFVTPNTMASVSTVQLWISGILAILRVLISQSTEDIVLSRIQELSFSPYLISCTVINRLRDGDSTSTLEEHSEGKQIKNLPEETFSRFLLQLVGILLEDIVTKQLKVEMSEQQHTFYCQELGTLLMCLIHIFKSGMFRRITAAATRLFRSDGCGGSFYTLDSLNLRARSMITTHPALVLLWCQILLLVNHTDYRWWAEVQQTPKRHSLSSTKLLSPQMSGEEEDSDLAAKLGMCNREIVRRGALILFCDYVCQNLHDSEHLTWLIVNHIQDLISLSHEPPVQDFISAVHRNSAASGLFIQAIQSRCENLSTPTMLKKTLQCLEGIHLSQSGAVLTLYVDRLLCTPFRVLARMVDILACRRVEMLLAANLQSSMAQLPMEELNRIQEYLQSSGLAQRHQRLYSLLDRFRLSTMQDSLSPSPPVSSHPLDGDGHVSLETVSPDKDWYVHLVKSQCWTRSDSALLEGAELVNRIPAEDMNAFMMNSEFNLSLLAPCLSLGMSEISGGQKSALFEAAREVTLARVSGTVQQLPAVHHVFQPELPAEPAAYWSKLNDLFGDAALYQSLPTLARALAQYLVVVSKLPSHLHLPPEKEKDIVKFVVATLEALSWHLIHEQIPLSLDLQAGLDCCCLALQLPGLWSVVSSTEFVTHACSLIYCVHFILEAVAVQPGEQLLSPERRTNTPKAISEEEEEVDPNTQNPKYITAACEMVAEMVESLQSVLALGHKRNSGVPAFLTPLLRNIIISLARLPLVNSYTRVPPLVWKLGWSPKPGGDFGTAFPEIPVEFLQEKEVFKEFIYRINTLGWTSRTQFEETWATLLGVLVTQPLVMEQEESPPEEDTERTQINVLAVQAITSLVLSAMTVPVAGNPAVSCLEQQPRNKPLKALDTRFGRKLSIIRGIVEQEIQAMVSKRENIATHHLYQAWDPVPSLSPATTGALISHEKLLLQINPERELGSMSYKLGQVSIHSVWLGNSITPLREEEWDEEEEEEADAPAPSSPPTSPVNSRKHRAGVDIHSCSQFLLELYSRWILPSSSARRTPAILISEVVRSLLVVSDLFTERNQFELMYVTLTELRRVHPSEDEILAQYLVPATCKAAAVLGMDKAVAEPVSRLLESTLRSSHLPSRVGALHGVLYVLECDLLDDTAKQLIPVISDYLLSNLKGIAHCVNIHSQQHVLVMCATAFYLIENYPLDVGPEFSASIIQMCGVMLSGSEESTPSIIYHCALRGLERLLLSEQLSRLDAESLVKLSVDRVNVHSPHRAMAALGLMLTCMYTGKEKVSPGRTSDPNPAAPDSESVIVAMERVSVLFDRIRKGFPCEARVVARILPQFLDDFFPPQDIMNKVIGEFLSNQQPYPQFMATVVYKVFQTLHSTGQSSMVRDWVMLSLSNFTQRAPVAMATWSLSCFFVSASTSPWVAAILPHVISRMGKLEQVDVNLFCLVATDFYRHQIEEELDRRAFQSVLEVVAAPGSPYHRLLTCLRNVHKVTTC

| SMILES | IC50 [nM] |
| --- | --- |
| COc1ccc(COc2ccc3oc(-c4ccc(C#N)cc4)nc3c2)nc1 [4-{5-[(5-methoxypyridin-2-yl)methoxy]-1,3-benzoxazol-2-yl]benzonitrile] | < 100 |
| COc1ccc(COc2ccc3oc(-c4ccncc4C#N)cc3c2)nc1 [4-{5-[(5-methoxypyridin-2-yl)methoxy]-1-benzofuran-2-yl}pyridine-3-carbonitrile] | < 100 |
| COc1ccc(COc2ccc3oc(-c4ccncc4)cc3c2)nc1 [4-{5-[(5-methoxypyridin-2-yl)methoxy]-1-benzofuran-2-yl}pyridine] | < 100 |
| CC(=O)Oc1ccc(C(=O)Nc2ccc3oc(-c4ccc(Cl)cc4)nc3c2)cc1 [4-{[2-(4-chlorophenyl)-1,3-benzoxazol-5-yl]carbamoyl}phenyl acetate] | < 100 |
| Cn1cc(-c2ccc3oc(-c4cccnc4)nc3c2)cn1 [5-(1-methyl-1H-pyrazol-4-yl)-2-(pyridin-3-yl)-1,3-benzoxazole] | 100 to 500 |
| Cn1cc(-c2ccc(COc3cnc4oc(-c5cccnc5)nc4c3)nc2)cn1 [5-(1-methyl-1H-pyrazol-4-yl)-2-({[2-(pyridin-3-yl)-[1,3]oxazolo[5,4-b]pyridin-6-yl]oxy}methyl)pyridine] | < 100 |
| COc1ncc(-c2ccc3oc(-c4cccnc4)nc3c2)cn1 [5-(2-methoxypyrimidin-5-yl)-2-(pyridin-3-yl)-1,3-benzoxazole] | 100 to 500 |
| COc1ccc(-c2ccc3oc(-c4cccnc4)nc3c2)cc1 [5-(4-methoxyphenyl)-2-(pyridin-3-yl)-1,3-benzoxazole] | < 100 |
| COc1cnc(-c2ccc3oc(-c4cccnc4)nc3c2)cn1 [5-(5-methoxypyrazin-2-yl)-2-(pyridin-3-yl)-1,3-benzoxazole] | < 100 |
| COc1ccc(-c2ccc3oc(-c4cccnc4)nc3c2)nc1 [5-(5-methoxypyridin-2-yl)-2-(pyridin-3-yl)-1,3-benzoxazole] | 100 to 500 |
| COc1cnc(-c2ccc3oc(-c4cccnc4)nc3c2)nc1 [5-(5-methoxypyrimidin-2-yl)-2-(pyridin-3-yl)-1,3-benzoxazole] | < 100 |
| COc1ccc(-c2ccc3oc(-c4cccnc4)nc3c2)nn1 [5-(6-methoxypyridazin-3-yl)-2-(pyridin-3-yl)-1,3-benzoxazole] | < 100 |
| c1ccc(COc2ccc3oc(-c4cccnc4)nc3c2)nc1 [5-(pyridin-2-ylmethoxy)-2-(pyridin-3-yl)-1,3-benzoxazole] | 100 to 500 |
| c1cncc(-c2nc3cc(OCc4ccc(OCCN5CCOCC5)cn4)ccc3o2)c1 [5-({5-[2-(morpholin-4-yl)ethoxy]pyridin-2-yl}methoxy)-2-(pyridin-3-yl)-1,3-benzoxazole] | < 100 |
| O=c1cnc(COc2ccc3oc(-c4cccnc4)nc3c2)c[nH]1 [5-({[2-(pyridin-3-yl)-1,3-benzoxazol-5-yl]oxy}methyl)-1,2-dihydropyrazin-2-one] | 100 to 500 |
| c1ccc(OCCOc2ccc3oc(-c4cccnc4)nc3c2)nc1 [5-[2-(pyridin-2-yloxy)ethoxy]-2-(pyridin-3-yl)-1,3-benzoxazole] | 100 to 500 |
| Oc1cnc(-c2ccc3oc(-c4cccnc4)nc3c2)cn1 [5-[2-(pyridin-3-yl)-1,3-benzoxazol-5-yl]pyrazin-2-ol] | 100 to 500 |
| COc1cnc(N2CCN(c3ccc4oc(-c5cccnc5)nc4c3)CC2)nc1 [5-[4-(5-methoxypyrimidin-2-yl)piperazin-1-yl]-2-(pyridin-3-yl)-1,3-benzoxazole] | < 100 |
| COCCOc1cnc(-c2ccc3oc(-c4cccnc4)nc3c2)nc1 [5-[5-(2-methoxyethoxy)pyrimidin-2-yl]-2-(pyridin-3-yl)-1,3-benzoxazole] | < 100 |

| SMILES | IC50 [nM] |
| --- | --- |
| Cn1cc(COc2ccc3oc(-c4cccnc4)nc3c2)cn1 [5-[(1-methyl-1H-pyrazol-4-yl)methoxy]-2-(pyridin-3-yl)-1,3-benzoxazole] | 100 to 500 |
| COc1cccc(COc2ccc3oc(-c4cccnc4)nc3c2)c1 [5-[(3-methoxyphenyl)methoxy]-2-(pyridin-3-yl)-1,3-benzoxazole] | < 100 |
| COc1ccc(COc2ccc3oc(-c4cccnc4)nc3c2)cc1 [5-[(4-methoxyphenyl)methoxy]-2-(pyridin-3-yl)-1,3-benzoxazole] | < 100 |
| Brc1ccc(COc2ccc3oc(-c4cccnc4)nc3c2)nc1 [5-[(5-bromopyridin-2-yl)methoxy]-2-(pyridin-3-yl)-1,3-benzoxazole] | < 100 |
| COc1cnc(COc2ccc3c(c2)nc(-c2cccnc2)n3C)cn1 [5-[(5-methoxypyrazin-2-yl)methoxy]-1-methyl-2-(pyridin-3-yl)-1H-1,3-benzodiazole] | 100 to 500 |
| COc1cnc(COc2ccc3oc(-c4cnn(C)c4)nc3c2)cn1 [5-[(5-methoxypyrazin-2-yl)methoxy]-2-(1-methyl-1H-pyrazol-4-yl)-1,3-benzoxazole] | < 100 |
| COc1cnc(COc2ccc3oc(-c4cccnc4)nc3c2)cn1 [5-[(5-methoxypyrazin-2-yl)methoxy]-2-(pyridin-3-yl)-1,3-benzoxazole] | < 100 |
| COc1cnc(COc2ccc3[nH]c(-c4cccnc4)nc3c2)cn1 [5-[(5-methoxypyrazin-2-yl)methoxy]-2-(pyridin-3-yl)-1H-1,3-benzodiazole] | < 100 |
| COc1ccc(COc2ccc3oc(-c4cncs4)nc3c2)nc1 [5-[(5-methoxypyridin-2-yl)methoxy]-2-(1,3-thiazol-5-yl)-1,3-benzoxazole] | < 100 |
| COc1ccc(COc2ccc3oc(-c4cn(C)cn4)nc3c2)nc1 [5-[(5-methoxypyridin-2-yl)methoxy]-2-(1-methyl-1H-imidazol-4-yl)-1,3-benzoxazole] | 100 to 500 |
| COc1ccc(COc2ccc3oc(C4CCN(C)CC4)nc3c2)nc1 [5-[(5-methoxypyridin-2-yl)methoxy]-2-(1-methylpiperidin-4-yl)-1,3-benzoxazole] | 100 to 500 |
| COc1ccc(COc2ccc3oc(-c4ccnc(C)c4)nc3c2)nc1 [5-[(5-methoxypyridin-2-yl)methoxy]-2-(2-methylpyridin-4-yl)-1,3-benzoxazole] | < 100 |
| COc1ccc(COc2ccc3oc(-c4cccc(Oc5ccccc5)c4)nc3c2)nc1 [5-[(5-methoxypyridin-2-yl)methoxy]-2-(3-phenoxyphenyl)-1,3-benzoxazole] | < 100 |
| COc1ccc(COc2ccc3oc(-c4cncc(C)c4)nc3c2)nc1 [5-[(5-methoxypyridin-2-yl)methoxy]-2-(5-methylpyridin-3-yl)-1,3-benzoxazole] | < 100 |
| COc1ccc(COc2ccc3oc(N4CCNCC4)nc3c2)nc1 [5-[(5-methoxypyridin-2-yl)methoxy]-2-(piperazin-1-yl)-1,3-benzoxazole] | > 50 |
| COc1ccc(COc2ccc3oc(-c4cnccn4)nc3c2)nc1 [5-[(5-methoxypyridin-2-yl)methoxy]-2-(pyrazin-2-yl)-1,3-benzoxazole] | < 100 |
| COc1ccc(COc2ccc3oc(-c4cccnn4)nc3c2)nc1 [5-[(5-methoxypyridin-2-yl)methoxy]-2-(pyridazin-3-yl)-1,3-benzoxazole] | < 100 |
| COc1ccc(COc2ccc3oc(-c4ccnnc4)nc3c2)nc1 [5-[(5-methoxypyridin-2-yl)methoxy]-2-(pyridazin-4-yl)-1,3-benzoxazole] | < 100 |
| COc1ccc(COc2ccc3oc(-c4cccnc4)nc3c2)nc1 [5-[(5-methoxypyridin-2-yl)methoxy]-2-(pyridin-3-yl)-1,3-benzoxazole] | < 100 |
